Experimental data as given in patent US20140039008A1, “METHODS FOR THE ADMINISTRATION OF ILOPERIDONE” (VANDA PHARMACEUTICALS, INC., priority 2004, published 2014).
Several values for one entry are separate records, joined by “and”; a condition that tells them apart may be missing. Equal values may be shown once. Marks after values point to notes of the source that are not given here.

Assays:
[1] = test system: patients; experiment: Example 2: QTcF change from baseline in iloperidone-treated patients; assay type: in vivo, human
Description: From the 300 iloperidone-treated patients initially genotyped for the CYP2D6*4 and * 10 variants (VP-VYV-683-3101), 222 remaining DNA samples were used for this extended pharmacogenomic analysis. One patient was excluded from the analysis due to inconsistent results for the CYP2D6 allele *4 generated by Quest Diagnostics Central Laboratory (Collegeville, Pa.) and Cogenics (Morrisville, N.C.). Pharmacokinetic data of the (iloperidone+P88)/P95 ratio was available for 168 of these patients. QT measurement at Day 14 and 28 was available for 169 and 146 patients respectively.
Analyses were performed on observed case data using an ANCOVA model with the baseline value as a covariate for the change from baseline in QTc (Fridericia formula) and using an ANOVA model for iloperidone blood exposure at Day 14 and Day 28. Linkage disequilibrium analysis was performed using Haploview v4.0 (Barrett et al, 2005).

[2] = test system: patients; experiment: Example 1: QTc change from baseline after iloperidone by CYP2D6 genotype or metabolite ratio; assay type: in vivo, human; conditions: for QTc change at Period 2: after CYP2D6 inhibitor
Description: The research leading to the present invention was designed to examine the effect of different doses of iloperidone relative to the effect of ziprasidone and quetiapine on QTc duration under carefully controlled conditions. To further evaluate the possible relationship between exposure to iloperidone and the comparators to QTc duration, reassessment after pharmacological inhibition of the principle metabolic pathways for each drug, under steady-state conditions, was also planned.
The addition of metabolic inhibitors in this study therefore allowed for an evaluation of the effect of increasing blood-concentration of iloperidone and/or its metabolites on QT duration. More specifically, this study allowed for an evaluation of the effect of iloperidone on QTc before and after the addition of the CYP2D6 inhibitor, paroxetine, as well as before and after the addition of the CYP3A4 inhibitor, ketoconazole.
The 128 individuals that participated were a good representation of the total sample of 165 individuals that participated in the trial. 22 of 29 total were from the iloperidone 8 mg bid group, 30 of 34 were from the iloperidone 12 mg bid group, 22 of 31 from the 24 mg qd group, 3 of 5 of the risperidone group, 28 of 33 of the ziprazidone group, and 23 of 33 of the quetiapine group.
In order to understand whether the difference in concentration of P88 at Period 1 Tmax was relevant to the increases in QTc after the addition of the inhibitors, the observed mean of P88 for the CYP2D6G1846A AG group was used to divide all individuals into two classes. The first includes individuals with P88 concentrations at Period 3, after the addition of both inhibitors, of equal to or less than 34 ng/mL and the second class includes individuals with P88 concentration greater than 34 ng/mL. The two classes were then compared in regards to the QTc change from baseline at Period 3. Using an ANOVA statistic for the first class […] (n=55) the QTc mean change from baseline in Period 3 was 22.7 msec and that for P88≦34 (n=12) the mean QTc for the same period was 7.7 msec.
While the results for some groups are not statistically significant, they do indicate a trend supporting the hypothesis that QTc prolongation is correlated to P88/P95 ratio. Similar results were obtained when cutoff ratios of 3.0 and 4.0 were analyzed, providing further support to the hypothesis that the extent of QTc prolongation a patient may experience after treatment can be predicted by measuring P88 and P95 blood levels.
Similar results were observed when considering QTc correlation to the (iloperidone+P88)/P95 ratio. […] While the results for some groups are not statistically significant, they do indicate a trend supporting the hypothesis that QTc prolongation is correlated to (iloperidone+P88)/P95 ratio. Indeed, when cutoff ratios of 3 and higher were analyzed, similar results were obtained providing further support to the hypothesis that the extent of QTc prolongation a patient may experience after treatment can be predicted by measuring iloperidone, P88 and P95 blood levels.

[3] = test system: patients; experiment: placebo-controlled Phase III studies of iloperidone, QTcF change; assay type: in vivo, human; conditions: for mean change in the QTcF: most recent study
Procedure: Iloperidone is a benzisoxazole-piperidinyl derivative, currently in development for the treatment of CNS disorders. […] At lower doses of iloperidone (4 mg-16 mg) QTcF prolongation was minimal (0.1-5 msec). In the most recent study, a greater prolongation was observed when higher doses of iloperidone (20-24 mg/day) were studied. The mean change in the QTcF at doses 20-24 mg/day was 8.5 msec, and 4.6 msec in the 12-16 mg/day dose range in this study.

[4] = in vivo
[5] = in vivo; remark: listed apart in the source

Structure (SMILES): COc1cc(C(C)=O)ccc1OCCCN1CCC(c2noc3cc(F)ccc23)CC1 [iloperidone, 1-[4-[3-[4-(6-fluoro-1,2-benzisoxazol-3-yl)-1-piperidinyl]propoxy]-3-methoxyphenyl]ethanone]
- QTcF change, LS Squares Mean QTcF change from baseline ([1]; Day 14, 1 or 2 non-functional CYP2D6 alleles): 16.3 msec and 16.3 (N = 59) msec
- QTcF change, LS Squares Mean QTcF change from baseline ([1]; Day 14, 2 functional CYP2D6 alleles): 9.7 msec and 9.7 (N = 110) msec
- QTcF change, LS Squares Mean QTcF change from baseline ([1]; Day 14, (iloperidone+P88)/P95 ratio >1): 16.0 msec and 16.0 (N = 99) msec
- QTcF change, LS Squares Mean QTcF change from baseline ([1]; Day 14, (iloperidone+P88)/P95 ratio ≦1): 7.9 msec and 7.9 (N = 127) msec
- QTcF change, LS Squares Mean QTcF change from baseline ([1]; Day 28, 1 or 2 non-functional CYP2D6 alleles): 11.4 msec and 11.4 (N = 56) msec
- QTcF change, LS Squares Mean QTcF change from baseline ([1]; Day 28, 2 functional CYP2D6 alleles): 4.4 msec and 4.4 (N = 90) msec
- QTcF change, LS Squares Mean QTcF change from baseline ([1]; Day 28, (iloperidone+P88)/P95 ratio >1): 10.1 msec and 10.1 (N = 79) msec
- QTcF change, LS Squares Mean QTcF change from baseline ([1]; Day 28, (iloperidone+P88)/P95 ratio ≦1): 4.8 msec and 4.8 (N = 119) msec
- LSMean QTc change from Baseline 8 mg bid ([2]; (ILO + P88)/P95 ratio <3): 7.2 (n = 23)
- LSMean QTc change from Baseline 12 mg bid ([2]; (ILO + P88)/P95 ratio <3): 8.7 (n = 31)
- LSMean QTc change from Baseline 8 + 12 mg bid ([2]; (ILO + P88)/P95 ratio <3): 8.3 (n = 54)
- LSMean QTc change from Baseline 24 qd ([2]; (ILO + P88)/P95 ratio <3): 14.4 (n = 24)
- LSMean QTc change from Baseline All Treatment Groups ([2]; (ILO + P88)/P95 ratio <3): 10.424 (n = 78)
- LSMean QTc change from Baseline 8 mg bid ([2]; (ILO + P88)/P95 ratio >3): 21.3 (n = 5)
- LSMean QTc change from Baseline 12 mg bid ([2]; (ILO + P88)/P95 ratio >3): 15.2 (n = 3)
- LSMean QTc change from Baseline 8 + 12 mg bid ([2]; (ILO + P88)/P95 ratio >3): 17.3 (n = 8)
- LSMean QTc change from Baseline 24 qd ([2]; (ILO + P88)/P95 ratio >3): 30.5 (n = 5)
- LSMean QTc change from Baseline All Treatment Groups ([2]; (ILO + P88)/P95 ratio >3): 20.031 (n = 13)
- QTc change at Period 1 ([2]; CYP2D6C100T CC, 8 mg bid): 7.8 (17)
- QTc change at Period 2 ([2]; CYP2D6C100T CC, 8 mg bid): 11.7 (16)
- QTc change at Period 1 ([2]; CYP2D6C100T CC, 12 mg bid): 11.8 (23)
- QTc change at Period 2 ([2]; CYP2D6C100T CC, 12 mg bid): 14.5 (21)
- QTc change at Period 1 ([2]; CYP2D6C100T CC, 24 mg qd): 9.5 (14)
- QTc change at Period 2 ([2]; CYP2D6C100T CC, 24 mg qd): 16.4 (15)
- QTc change at Period 1 ([2]; CYP2D6C100T CT, 8 mg bid): 2.9 (2)
- QTc change at Period 2 ([2]; CYP2D6C100T CT, 8 mg bid): 12.5 (2)
- QTc change at Period 1 ([2]; CYP2D6C100T CT, 12 mg bid): 5.8 (6)
- QTc change at Period 2 ([2]; CYP2D6C100T CT, 12 mg bid): 8.7 (6)
- QTc change at Period 1 ([2]; CYP2D6C100T CT, 24 mg qd): 19.0 (5)
- QTc change at Period 2 ([2]; CYP2D6C100T CT, 24 mg qd): 20.6 (5)
- QTc change at Period 1 ([2]; CYP2D6C100T TT, 8 mg bid): −8.4 (1)
- QTc change at Period 2 ([2]; CYP2D6C100T TT, 8 mg bid): −0.7 (1)
- QTc change at Period 1 ([2]; CYP2D6C100T TT, 12 mg bid): 17.7 (1)
- QTc change at Period 2 ([2]; CYP2D6C100T TT, 12 mg bid): 25.0 (1)
- QTc change at Period 1 ([2]; CYP2D6C100T TT, 24 mg qd): 38.4 (1)
- QTc change at Period 2 ([2]; CYP2D6C100T TT, 24 mg qd): 28.4 (1)
- QTc change at Period 1 ([2]; CYP2D6G1846A AA, 12 mg bid): 17.7 (1)^a
- QTc change at Period 2 ([2]; CYP2D6G1846A AA, 12 mg bid): 25.0 (1)
- QTc change at Period 1 ([2]; CYP2D6G1846A AA, 24 mg qd): 38.4 (1)
- QTc change at Period 2 ([2]; CYP2D6G1846A AA, 24 mg qd): 28.4 (1)
- QTc change at Period 1 ([2]; CYP2D6G1846A AG, 8 mg bid): −0.8 (3)
- QTc change at Period 2 ([2]; CYP2D6G1846A AG, 8 mg bid): 8.1 (3)
- QTc change at Period 1 ([2]; CYP2D6G1846A AG, 12 mg bid): 5.8 (6)
- QTc change at Period 2 ([2]; CYP2D6G1846A AG, 12 mg bid): 8.7 (6)
- QTc change at Period 1 ([2]; CYP2D6G1846A AG, 24 mg qd): 19.0 (5)
- QTc change at Period 2 ([2]; CYP2D6G1846A AG, 24 mg qd): 20.6 (5)
- QTc change at Period 1 ([2]; CYP2D6G1846A GG, 8 mg bid): 7.8 (17)
- QTc change at Period 2 ([2]; CYP2D6G1846A GG, 8 mg bid): 11.7 (18)
- QTc change at Period 1 ([2]; CYP2D6G1846A GG, 12 mg bid): 11.8 (23)
- QTc change at Period 2 ([2]; CYP2D6G1846A GG, 12 mg bid): 14.5 (21)
- QTc change at Period 1 ([2]; CYP2D6G1846A GG, 24 mg qd): 14.0 (14)
- QTc change at Period 2 ([2]; CYP2D6G1846A GG, 24 mg qd): 16.4 (15)
- LSMean QTc change from Baseline 8 mg bid ([2]; P88/P95 ratio <2): 7.2 (n = 23)
- LSMean QTc change from Baseline 12 mg bid ([2]; P88/P95 ratio <2): 8.7 (n = 31)
- LSMean QTc change from Baseline 8 + 12 mg bid ([2]; P88/P95 ratio <2): 8.3 (n = 54)
- LSMean QTc change from Baseline 24 qd ([2]; P88/P95 ratio <2): 13.9 (n = 24)
- LSMean QTc change from Baseline All Treatment Groups ([2]; P88/P95 ratio <2): 10.244 (n = 78)
- LSMean QTc change from Baseline 8 mg bid ([2]; P88/P95 ratio >2): 21.3 (n = 5)
- LSMean QTc change from Baseline 12 mg bid ([2]; P88/P95 ratio >2): 17.4 (n = 3)
- LSMean QTc change from Baseline 8 + 12 mg bid ([2]; P88/P95 ratio >2): 18.3 (n = 8)
- LSMean QTc change from Baseline 24 qd ([2]; P88/P95 ratio >2): 29.4 (n = 5)
- LSMean QTc change from Baseline All Treatment Groups ([2]; P88/P95 ratio >2): 21.111 (n = 13)
- QTc mean change from baseline in Period 3 ([2]; individuals with P88>34 ng/mL at Period 3, after addition of both inhibitors): 22.7 ms
- QTc mean change from baseline in Period 3 ([2]; individuals with P88≦34 ng/mL at Period 3, after addition of both inhibitors): 7.7 ms
- mean change in the QTcF ([3]; 12-16 mg/day dose range): 4.6 ms
- mean change in the QTcF ([3]; 20-24 mg/day): 8.5 ms
- QTcF prolongation ([3]; lower doses 4 mg-16 mg): 0.1 to 5 ms
- increase of the area under the curve (AUC) [4]: 131%
- increase in the concentrations [5]: 38-58%
